Laboratory results from patent publication US4526989A, “1,4-Bis (substituted-amino)-5,8-dihydroxy-anthraquinones and leuco bases thereof” (priority 1979, dated 1985).
Read-outs that look alike come from different tables or passages of the source.

Legend:
melanotic melanoma B16 = assay: Melanotic Melanoma B16 test; format: in vivo, C57BC/6 mice
Method: The animals used are C57BC/6 mice, all of the same sex, weighing a minimum of 17 g. and all within a 3-g. weight range. There are normally 10 animals per test group. A one-gram portion of melanotic melanoma B16 tumor is homogenized in 10 ml. of cold balanced salt solution and a 0.5-ml. aliquot of the homogenate is implanted intraperitoneally into each of the test mice. The test compounds are administered intraperitoneally on days one through 9 (relative to tumor inoculation) at various doses. The animals are weighed and survivors are recorded on a regular basis for 60 days. The median survival time and the ratio of survival time for treated (T)/control (C) animals are calculated. […] The criterion for efficacy is T/C×100≥125%.

[1] = system: lymphocytic leukemia P388; assay: Lymphocytic leukemia P388 test (intraperitoneal administration); format: in vivo, DBA/2 mice
Procedure, shortened: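 DBA/2 mice, single sex, 5-6 per group, inoculated i.p. with 10^6 P388 leukemia cells. Compounds given i.p. at various doses on days 1, 5 and 9; survival followed 30 days, reporting median survival time and treated/control (T/C) survival ratio.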

[2] = 6 mg./kg. i.p., days 1 through 9
[3] = 12 mg./kg. i.p., days 1 through 9
[4] = 25 mg./kg. i.p., days 1 through 9
[5] = 50 mg./kg. i.p., days 1 through 9
[6] = 25 mg./kg. i.p., days 1, 5 and 9
[7] = 50 mg./kg. i.p., days 1, 5 and 9
[8] = 100 mg./kg. i.p., days 1, 5 and 9
[9] = Mus musculus, P388, ip, read-out: T/C × 100
[10] = Mus musculus, P388, ip, 25 mg./kg. i.p., days 1, 5 and 9, efficacy ≥125%, read-out: T/C × 100
[11] = Mus musculus, P388, ip, 50 mg./kg. i.p., days 1, 5 and 9, efficacy ≥125%, read-out: T/C × 100

| Structure (SMILES) | Median Survival Time (melanotic melanoma B16; [2]) [days] | Median Survival Time (melanotic melanoma B16; [3]) [days] | Median Survival Time (melanotic melanoma B16; [4]) [days] | Median Survival Time (melanotic melanoma B16; [5]) [days] | Median Survival Time [1, 6] [days] | Median Survival Time [1, 7] [days] | Median Survival Time [1, 8] [days] | response vs control in vivo at 25 mg/kg [1, 10] [%] | response vs control in vivo at 50 mg/kg [1, 11] [%] | further results |
| --- | --- | --- | --- | --- | --- | --- | --- | --- | --- | --- |
| CC(C)NCCNC1=C2C(=O)c3c(O)ccc(O)c3C(=O)C2=C(NCCNC(C)C)CC1 [Leuco-1,4-bis[2-(2-isopropylamino)ethylamino]-5,8-dihydroxyanthraquinone] | 25.0 | 30.0 | 31.0 | 6.5 | 17.0 | 19.0 | 8.0 | – | – | T/C × 100 (melanotic melanoma B16; 6 mg./kg. i.p., days 1 through 9, efficacy ≥125%): 151%; T/C × 100 (melanotic melanoma B16; 12 mg./kg. i.p., days 1 through 9, efficacy ≥125%): 182%; T/C × 100 (melanotic melanoma B16; 25 mg./kg. i.p., days 1 through 9, efficacy ≥125%): 188%; T/C × 100 (melanotic melanoma B16; 50 mg./kg. i.p., days 1 through 9, efficacy ≥125%): 39%; Median Survival Time ([1]; 12.5 mg./kg. i.p., days 1, 5 and 9): 15.0 days; T/C × 100 ([1]; 12.5 mg./kg. i.p., days 1, 5 and 9, efficacy ≥125%): 136%; T/C × 100 ([1]; 25 mg./kg. i.p., days 1, 5 and 9, efficacy ≥125%): 155%; T/C × 100 ([1]; 50 mg./kg. i.p., days 1, 5 and 9, efficacy ≥125%): 173%; T/C × 100 ([1]; 100 mg./kg. i.p., days 1, 5 and 9, efficacy ≥125%): 73% |
| NCCNC1=C2C(=O)c3c(O)ccc(O)c3C(=O)C2=C(NCCN)CC1 [Leuco-1,4-bis(2-aminoethylamino)-5,8-dihydroxyanthraquinone] | – | 32.0 | – | – | 19.0 | 23.0 | 19.0 | 158 | 192 | response vs control in vivo at 12 mg/kg (melanotic melanoma B16; Mus musculus, ip, read-out: T/C × 100): 200%; Median Survival Time ([1]; 12 mg./kg. i.p., days 1, 5 and 9): 18.0 days; response vs control in vivo at 12 mg/kg [1, 9]: 150%; response vs control in vivo at 100 mg/kg [1, 9]: 158% |
| NCCNCCNc1ccc(NCCNCCN)c2c1C(=O)c1c(O)ccc(O)c1C2=O [1,4-Bis[2-(2-aminoethylamino)ethylamino]-5,8-dihydroxyanthraquinone] | 20.0 | 22.0 | 22.5 | 24.0 | 13.0 | 14.0 | 16.0 | 124 | 133 | response vs control in vivo at 6 mg/kg (melanotic melanoma B16; Mus musculus, ip, 6 mg./kg. i.p., days 1 through 9, efficacy ≥125%, read-out: T/C × 100): 125%; response vs control in vivo at 12 mg/kg (melanotic melanoma B16; Mus musculus, ip, 12 mg./kg. i.p., days 1 through 9, efficacy ≥125%, read-out: T/C × 100): 138%; response vs control in vivo at 25 mg/kg (melanotic melanoma B16; Mus musculus, ip, 25 mg./kg. i.p., days 1 through 9, efficacy ≥125%, read-out: T/C × 100): 141%; response vs control in vivo at 50 mg/kg (melanotic melanoma B16; Mus musculus, ip, 50 mg./kg. i.p., days 1 through 9, efficacy ≥125%, read-out: T/C × 100): 150%; Median Survival Time ([1]; 200 mg./kg. i.p., days 1, 5 and 9): 17.0 days; response vs control in vivo at 100 mg/kg ([1]; Mus musculus, P388, ip, 100 mg./kg. i.p., days 1, 5 and 9, efficacy ≥125%, read-out: T/C × 100): 152%; response vs control in vivo at 200 mg/kg ([1]; Mus musculus, P388, ip, 200 mg./kg. i.p., days 1, 5 and 9, efficacy ≥125%, read-out: T/C × 100): 162% |
